What all share (assay type): biochemical
For one test, the target named is T1, LATS1 (Homo sapiens, UniProt O95835).
T1 sequence (O95835 1-1130): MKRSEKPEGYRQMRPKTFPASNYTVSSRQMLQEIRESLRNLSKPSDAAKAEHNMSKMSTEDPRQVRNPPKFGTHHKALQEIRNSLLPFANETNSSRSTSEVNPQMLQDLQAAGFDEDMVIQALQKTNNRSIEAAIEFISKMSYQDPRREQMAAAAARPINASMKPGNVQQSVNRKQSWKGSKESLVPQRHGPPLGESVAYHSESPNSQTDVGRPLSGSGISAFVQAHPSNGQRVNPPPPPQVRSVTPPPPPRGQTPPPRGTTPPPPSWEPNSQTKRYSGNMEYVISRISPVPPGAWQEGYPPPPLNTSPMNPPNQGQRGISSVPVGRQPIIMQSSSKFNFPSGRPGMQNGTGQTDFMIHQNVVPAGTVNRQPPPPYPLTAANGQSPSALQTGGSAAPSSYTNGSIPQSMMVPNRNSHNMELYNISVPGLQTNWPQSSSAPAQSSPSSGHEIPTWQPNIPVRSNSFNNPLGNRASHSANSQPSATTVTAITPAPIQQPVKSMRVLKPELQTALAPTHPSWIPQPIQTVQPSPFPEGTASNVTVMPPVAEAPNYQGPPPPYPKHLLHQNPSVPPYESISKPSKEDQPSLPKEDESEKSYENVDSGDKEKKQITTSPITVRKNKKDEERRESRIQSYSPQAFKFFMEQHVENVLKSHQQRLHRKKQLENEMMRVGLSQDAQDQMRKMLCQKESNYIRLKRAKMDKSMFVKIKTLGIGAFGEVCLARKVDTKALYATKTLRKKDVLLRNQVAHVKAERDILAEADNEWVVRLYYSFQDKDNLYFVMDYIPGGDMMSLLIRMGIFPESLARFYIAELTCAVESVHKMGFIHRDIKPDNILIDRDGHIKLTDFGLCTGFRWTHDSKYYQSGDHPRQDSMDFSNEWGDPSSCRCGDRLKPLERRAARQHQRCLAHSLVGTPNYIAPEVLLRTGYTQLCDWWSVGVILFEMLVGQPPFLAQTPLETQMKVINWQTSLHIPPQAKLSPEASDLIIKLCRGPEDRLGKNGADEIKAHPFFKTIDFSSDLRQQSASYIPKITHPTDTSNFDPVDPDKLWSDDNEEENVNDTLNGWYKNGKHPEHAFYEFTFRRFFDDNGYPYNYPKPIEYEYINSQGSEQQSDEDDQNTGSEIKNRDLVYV
In words: RBC HotSpot kinase assay (33P-ATP, P81 filter-binding), LATS1. The settings on record: Table 28, biochemical kinase assay; read-out: LATS1 IC50. In short, it runs like this: (§1)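 Substrate in fresh buffer receives cofactors, then kinase, then compound in DMSO for a 20 min room-temperature preincubation. Reactions start with 33P-ATP and run 2 h; phosphorylation is read by P81 filter binding, and IC50 comes from a 10-point curve.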

The next test addresses T2, LATS2 (Homo sapiens, UniProt Q9NRM7).
T2 sequence (Q9NRM7 1-1088): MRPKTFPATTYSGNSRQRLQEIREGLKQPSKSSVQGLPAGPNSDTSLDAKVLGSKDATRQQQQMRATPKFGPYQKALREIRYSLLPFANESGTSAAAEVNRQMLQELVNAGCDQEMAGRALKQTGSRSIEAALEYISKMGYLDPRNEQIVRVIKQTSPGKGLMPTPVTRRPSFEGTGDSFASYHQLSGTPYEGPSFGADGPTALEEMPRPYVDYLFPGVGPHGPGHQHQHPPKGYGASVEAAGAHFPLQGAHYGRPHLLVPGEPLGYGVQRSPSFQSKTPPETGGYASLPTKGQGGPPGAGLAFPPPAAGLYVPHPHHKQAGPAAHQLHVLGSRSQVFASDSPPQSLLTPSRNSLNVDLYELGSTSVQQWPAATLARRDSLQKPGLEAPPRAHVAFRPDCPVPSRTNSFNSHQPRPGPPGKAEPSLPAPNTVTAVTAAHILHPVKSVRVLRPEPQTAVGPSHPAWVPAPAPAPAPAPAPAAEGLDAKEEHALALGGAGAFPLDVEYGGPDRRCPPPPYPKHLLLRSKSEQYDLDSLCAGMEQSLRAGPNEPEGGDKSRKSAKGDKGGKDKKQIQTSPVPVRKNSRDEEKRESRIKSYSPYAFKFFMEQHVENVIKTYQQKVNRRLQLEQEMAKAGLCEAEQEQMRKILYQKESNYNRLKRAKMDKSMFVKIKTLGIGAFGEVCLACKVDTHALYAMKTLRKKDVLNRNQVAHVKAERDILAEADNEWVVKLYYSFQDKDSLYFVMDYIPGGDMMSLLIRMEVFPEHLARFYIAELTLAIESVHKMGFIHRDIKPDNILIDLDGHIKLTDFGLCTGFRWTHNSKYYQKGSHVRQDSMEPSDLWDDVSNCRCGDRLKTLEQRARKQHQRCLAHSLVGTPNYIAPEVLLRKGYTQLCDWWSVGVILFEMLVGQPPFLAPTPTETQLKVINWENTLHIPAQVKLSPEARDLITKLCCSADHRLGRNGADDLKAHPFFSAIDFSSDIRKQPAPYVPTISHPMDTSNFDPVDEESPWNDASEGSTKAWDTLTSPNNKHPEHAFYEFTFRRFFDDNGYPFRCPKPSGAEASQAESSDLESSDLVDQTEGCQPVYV
Nature of the test: RBC HotSpot kinase assay (33P-ATP, P81 filter-binding), LATS2. Conditions: Table 28, biochemical kinase assay; read-out: LATS2 IC50. In short, it runs like this:
as §1

Another test deals with AKT (Homo sapiens, UniProt P31749). In words: RBC HotSpot kinase assay (33P-ATP, P81 filter-binding), AKT. The settings on record: Table 28, biochemical kinase assay; read-out: AKT IC50. The method, boiled down:
as §1

Here are results for 13 compounds from patent publication US20250361230A1, “LATS Inhibitors and Uses Thereof” (The USA, as Represented by the Secretary, Dept. of Heath …, priority 2022, published 2025).

AKT, sequence (P31749 whole entry): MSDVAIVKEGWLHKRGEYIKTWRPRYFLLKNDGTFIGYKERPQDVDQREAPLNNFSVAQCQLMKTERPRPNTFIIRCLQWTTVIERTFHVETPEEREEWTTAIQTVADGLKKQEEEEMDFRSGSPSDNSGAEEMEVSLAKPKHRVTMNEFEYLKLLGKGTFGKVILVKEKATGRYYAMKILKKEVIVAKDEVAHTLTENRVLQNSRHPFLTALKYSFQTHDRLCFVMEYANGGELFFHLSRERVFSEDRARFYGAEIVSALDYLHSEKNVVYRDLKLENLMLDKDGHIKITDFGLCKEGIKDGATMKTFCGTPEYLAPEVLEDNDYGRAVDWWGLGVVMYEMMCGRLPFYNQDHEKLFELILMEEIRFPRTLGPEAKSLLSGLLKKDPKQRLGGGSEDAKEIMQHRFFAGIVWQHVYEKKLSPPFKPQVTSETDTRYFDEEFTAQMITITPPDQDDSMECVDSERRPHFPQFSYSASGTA

For `Cc1cc(-c2ccnc3[nH]cc(F)c23)cc(F)c1[C@@]1(O)[C@H](C)CN(C(=O)[C@@H]2COCCN2)C[C@@H]1C` [Compound 68, ((3S,4R,5R)-4-(2-fluoro-4-(3-fluoro-1H-pyrrolo[2,3-b]pyridin-4-yl)-6-methylphenyl)-4-hydroxy-3,5-dimethylpiperidin-1-yl)((S)-morpholin-3-yl)methanone], the values for the IC50 at LATS1, at LATS2 and on AKT were 0.0138 µM, 0.0066 µM and 1.67 µM, respectively.
On the same counts, the results for `Cc1cc(-c2ccnc3[nH]cc(F)c23)cc(F)c1[C@@]1(O)[C@H](C)CN(C(=O)[C@@H]2C[C@@H](O)CN2)C[C@@H]1C` [Compound 69, ((3S,4R,5R)-4-(2-fluoro-4-(3-fluoro-1H-pyrrolo[2,3-b]pyridin-4-yl)-6-methylphenyl)-4-hydroxy-3,5-dimethylpiperidin-1-yl)((2S,4R)-4-hydroxypyrrolidin-2-yl)methanone] are 0.0085 µM, 0.0034 µM and 0.677 µM.
For `Cc1cc(-c2ccnc3[nH]cc(F)c23)cc(F)c1[C@@]1(O)[C@H](C)CN(C(=O)[C@@H]2C[C@H](O)CN2)C[C@@H]1C` [Compound 70, ((3S,4R,5R)-4-(2-fluoro-4-(3-fluoro-1H-pyrrolo[2,3-b]pyridin-4-yl)-6-methylphenyl)-4-hydroxy-3,5-dimethylpiperidin-1-yl)((2S,4S)-4-hydroxypyrrolidin-2-yl)methanone] the same measures were 0.0078 µM, 0.0025 µM and 0.376 µM.
With `Cc1cc(-c2ccnc3[nH]cc(F)c23)cc(F)c1[C@@]1(O)[C@H](C)CN(C(=O)CN(C)C)C[C@@H]1C` [Compound 71, 2-(dimethylamino)-1-((3S,4s,5R)-4-(2-fluoro-4-(3-fluoro-1H-pyrrolo[2,3-b]pyridin-4-yl)-6-methylphenyl)-4-hydroxy-3,5-dimethylpiperid-1-yl)ethan-1-one], the figures for the IC50 on LATS1, on LATS2 and at AKT were 0.0113 µM, 0.0037 µM and 0.939 µM, respectively.
On the same counts, the results for `C[C@@H]1CN(C(=O)C2CC(C)(C)C2)C[C@H](C)C1(O)c1c(F)cc(-c2ccnc3[nH]cc(F)c23)cc1F` (stereo partly drawn) [Compound 72, ((3S,5R)-4-(2,6-difluoro-4-(3-fluoro-1H-pyrrolo[2,3-b]pyridin-4-yl)phenyl)-4-hydroxy-3,5-dimethylpiperidin-1-yl)(3,3-dimethylcyclobutyl) methanone] are 0.0274 µM, 0.06 µM and above 10 µM.
On the same counts, the results for `Cc1cc(-c2ccnc3[nH]cc(F)c23)cc(F)c1C1(O)[C@H](C)CN(C(=O)C2CC(F)(F)C2)C[C@@H]1C` (stereo partly drawn) [Compound 73, (3,3-difluorocyclobutyl) ((3S,5R)-4-(2-fluoro-4-(3-fluoro-1H-pyrrolo[2,3-b]pyridin-4-yl)-6-methylphenyl)-4-hydroxy-3,5-dimethylpiperidin-1-yl)methanone] are 0.0147 µM, 0.0327 µM and 6.47 µM.
On the same counts, the results for `C[C@@H]1CN(C(=O)C2CC(C(F)(F)F)C2)C[C@H](C)C1(O)c1c(F)cc(-c2ccnc3[nH]cc(F)c23)cc1F` (stereo partly drawn) [Compound 74, ((3S,5R)-4-(2,6-difluoro-4-(3-fluoro-1H-pyrrolo[2,3-b]pyridin-4-yl)phenyl)-4-hydroxy-3,5-dimethylpiperidin-1-yl)(3-(trifluoromethyl)cyclobutyl)methanone] are 0.0353 µM, 0.0122 µM and above 10 µM.
As for `C[C@@H]1CN(C(=O)CN)C[C@H](C)[C@@]1(O)c1ccc(-c2ccnc3[nH]cc(F)c23)cc1Cl` [Compound 75, 2-amino-1-((3R,4s,S5S)-4-(2-chloro-4-(3-fluoro-1H-pyrrolo[2,3-b]pyridin-4-yl)phenyl)-4-hydroxy-3,5-dimethylpiperid-1-yl)ethan-1-one], the IC50 (usually the concentration that inhibits the measured activity by half) was 0.0199 µM at LATS1, 0.005 µM at LATS2 and 0.14 µM at AKT.
As to `Cc1nc(-c2ccnc3[nH]cc(F)c23)ccc1C1(O)[C@H](C)CN(C(=O)CN)C[C@@H]1C` (stereo partly drawn) [Compound 76, 2-amino-1-((3S,5R)-4-(6-(3-fluoro-1H-pyrrolo[2,3-b]pyridin-4-yl)-2-methylpyridin-3-yl)-4-hydroxy-3,5-dimethylpiperidin-1-yl)ethan-1-one], the IC50 at LATS1 was determined as 0.0298 µM; on LATS2 it was 0.0189 µM; on AKT, 1.72 µM.
For `C[C@@H]1CN(C(=O)C(C)(C)N)C[C@H](C)C1(O)c1c(F)cc(-c2ccnc3[nH]cc(F)c23)cc1F` (stereo partly drawn) [Compound 77, 2-amino-1-((3S,5R)-4-(2,6-difluoro-4-(3-fluoro-1H-pyrrolo[2,3-b]pyridin-4-yl)phenyl)-4-hydroxy-3,5-dimethylpiperidin-1-yl)-2-methylpropan-1-one] the same measures were 0.0246 µM, 0.0193 µM and 0.885 µM.
On the same counts, the results for `C[C@@H]1CN(C(=O)C2(N)CC2)C[C@H](C)C1(O)c1c(F)cc(-c2ccnc3[nH]cc(F)c23)cc1F` (stereo partly drawn) [Compound 78, (1-aminocyclopropyl) ((3S,5R)-4-(2,6-difluoro-4-(3-fluoro-1H-pyrrolo[2,3-b]pyridin-4-yl)phenyl)-4-hydroxy-3,5-dimethylpiperidin-1-yl)methanone] are 0.0169 µM, 0.034 µM and 2.43 µM.
Turning to `C[C@@H]1CN(C(=O)C2(N)CC(F)(F)C2)C[C@H](C)C1(O)c1c(F)cc(-c2ccnc3[nH]cc(F)c23)cc1F` (stereo partly drawn) [Compound 79, (1-amino-3,3-difluorocyclobutyl) ((3S,5R)-4-(2,6-difluoro-4-(3-fluoro-1H-pyrrolo[2,3-b]pyridin-4-yl)phenyl)-4-hydroxy-3,5-dimethylpiperidin-1-yl)methanone], the results for the IC50 on LATS1, at LATS2 and on AKT were 0.0128 µM, 0.0295 µM and 5.14 µM, respectively.
On the same counts, the results for `C[C@@H]1CN(C(=O)CN(C)C)C[C@H](C)C1(O)c1c(F)cc(-c2ccnc3[nH]cc(F)c23)cc1F` (stereo partly drawn) [Compound 80, 1-((3S,5R)-4-(2,6-difluoro-4-(3-fluoro-1H-pyrrolo[2,3-b]pyridin-4-yl)phenyl)-4-hydroxy-3,5-dimethylpiperidin-1-yl)-2-(dimethylamino) ethan-1-one] are 0.0123 µM, 0.0128 µM and 0.7 µM.
